Data taken from PubChem BioAssay AID540268 (Broad Institute, 2011).
The source made the active and inactive calls. How the calls were made is not given here.

Assay: growth inhibition of yeast carrying parasite Hsp90, dose response, anti-malarial Hsp90 inhibitor project, ATP luminescence, 48 h, cherry-picked samples (AID 540268);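 on activity change, negative = inhibition: 0% = neutral control wells and -100% = positive control wells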
Conditions: yeast expressing the parasite Hsp90, ATP luminescence; for activity change, negative = inhibition: at 26 µM (top of the series)

Row | SMILES | AC50 [µM] | activity change, negative = inhibition
1 | CCCCCCCCCCOC(=O)Cn1c(COc2ccc(C)cc2)[n+](C)c2ccccc21 | 25.8 | 
2 | CCc1ccc(NC(=O)c2nc(S(=O)(=O)Cc3ccccc3)ncc2Cl)cc1 | 3.5 | 
3 | O=C(/C=C/N1CCOCC1)c1ccc(-c2ccccc2)cc1 | 4.23 | 
4 | CN(C)/C=C/C(=O)c1ccc2noc(-c3ccccc3)c2c1 | 8.37 | 
5 | Oc1ccc2ccccc2c1N=Nc1ccccn1 | 2.66 | 
6 | O=C1C2C3C=CC(CNS(=O)(=O)c4ccccc4[N+](=O)[O-])(O3)C2C(=O)N1c1ccccc1 (stereo not drawn) | 10.3 | 
7 | O=c1[nH]c(-c2ccccn2)nc(C(F)(F)F)c1Br | 4 | 
8 | Cc1cc(/C=C\c2ccc3cc(N(C)C)ccc3[n+]2C)c(C)n1-c1ccccc1 | 4.39 | 
9 | O=C(O)c1ccc(N/N=C/c2ccc(-c3cccc(Cl)c3)o2)cc1 | 8.69 | 
10 | CC(=O)N(C1=C(Cl)C(=O)c2ccccc2C1=O)C1CCCCC1 | < 0.195 | 
11 | Cc1cccc(CS(=O)(=O)c2ncc(Cl)c(C(=O)Nc3ccc(F)cc3)n2)c1 | 2.92 | 
12 | CC(NC(=O)c1ccc(Br)cc1)c1ccc2c(c1)CCCC2 (stereo not drawn) | 1.37 | 
13 | O=C(N/N=C/c1cc2c3c(c1O)CCCN3CCC2)c1ccccc1O | 1.42 | 
14 | Cc1cc(N=Nc2ccc3ccccc3c2)ccc1O | 2.93 | 
15 | O=C(O)c1cccc(N/N=C/c2cc(Br)cc(Br)c2O)c1 | 1.15 | 
16 | Cc1cc(/C=C2\SC(=S)NC2=O)c(C)n1-c1ccc(O)cc1 | 4.65 | 
17 | CC(=NNC(=S)Nc1ccccc1Cl)c1ccccn1 | 3.91 | 
18 | Cc1ccc(-c2nc3cccnc3s2)cc1NS(=O)(=O)c1ccc2c(c1)OCCO2 | 4.12 | 
19 | COc1ccc(C)cc1N=Nc1ccc(O)c2ncccc12 | 1.18 | 
20 | COc1ccc(S(=O)(=O)NC2CC3CCC2C3)cc1Br (stereo not drawn) | 3.52 | 
21 | CCn1c(CNc2ccc(Cl)cc2)nnc1SCc1ccc(Cl)cc1 | 4.37 | 
22 | N#C/C(=C\c1cccc(Oc2ccccc2)c1)C(=O)N1CCOCC1 | 8.86 | 
23 | CC1=C(O)C(=O)C=C2C1=CC=C1C2(C)CCC2(C)C3CC(C)(C(=O)O)CCC3(C)CCC12C (stereo not drawn) | 1.48 | 

Row | SMILES | AC50 [µM] | activity change, negative = inhibition
24 | CC(=NNc1nc2ccccc2o1)c1cc2ccccc2cn1 | 17.7 | 
25 | O=Nc1c(O)c2ccccc2c2ccccc12 | 1.57 | 
26 | COc1ccc(C(C[N+](=O)[O-])c2c(C)[nH]n(-c3ccccc3)c2=O)cc1 (stereo not drawn) | 7.77 | 
27 | Cc1ccc(/C=[N+](\[O-])c2ccc(N(C)C)cc2)c2nsnc12 | 8.1 | 
28 | N#C/C(=C/c1ccc(N2CCCCCC2)o1)c1ccc(Cl)cc1 |  | -50.5% (inactive)
29 | COc1cc(/C=C/[N+](=O)[O-])ccc1OC(=O)c1cc2ccccc2oc1=O | 1.3 | 
30 | Cc1cc(-c2n[nH]c(=S)n2/N=C/C(Br)=C/c2ccccc2)n[nH]1 | 15 | 
31 | CC1=NNC(=O)/C1=C\c1cn(-c2ccccc2)nc1-c1cccs1 | 4.87 | 
32 | O=C(Nc1cccc(C(F)(F)F)c1)Oc1ccc(Cl)c2cccnc12 | 4.93 | 
33 | CCCCCCCCCCCCn1ccc(=N)cc1 | 7.7 | 
34 | Cc1cccc(NC(=O)c2nc(S(=O)(=O)Cc3ccccc3)ncc2Cl)c1 | 3.15 | 
35 | CC(=O)NC(c1ccccc1)c1cc(Cl)c2cccnc2c1O (stereo not drawn) | 7.28 | 
36 | Oc1c(Cl)cccc1Cc1cc(Cl)cc(Cl)c1O | 0.618 | 
37 | N/C(Cc1ccc(Cl)c(Cl)c1)=N\OC(=O)c1cccs1 | 2.22 | 
38 | Cc1cc(C(C)(C)CC(C)(C)C)ccc1OCCOCC[N+](C)(C)Cc1ccccc1 | 7.8 | 
39 | COc1ccccc1OCc1cc(C(=O)N2CCN(C)C(c3ccccc3)C2)no1 (stereo not drawn) | 3.05 | 
40 | Cc1ccc(-c2cc(-c3ccc(F)cc3)c(C#N)c(N)n2)o1 |  | 19.7% (inactive)
41 | COc1ccc2c(c1)OC[C@H]1[C@H]2N2C(=O)c3cc(Br)ccc3NC(=O)[C@@]2(C)[C@H]1c1ccccc1 | 0.658 | 
42 | Oc1ccc(N=Nc2c(O)ccc3ccccc23)cc1 | 7.02 | 
43 | O=C1/C(=C\c2ccc(O)c(O)c2)SC(=S)N1Cc1ccccc1 | 4.26 | 
44 | COc1cccc2c1C(=O)c1c(O)c3c(c(O)c1C2=O)CC(O)(C(C)=O)CC3OC1CC(N(C)C)C(O)C(C)O1 (stereo not drawn) | 1.58 | 
45 | CCN1C(=O)/C(=C\C(=O)c2cccs2)c2cc(Br)ccc21 | 4.28 | 
46 | CCCCCCCCCC[N+](C)(C)CC/C=C1/c2ccccc2Sc2ccc(Cl)cc21 | 6.32 | 

Row | SMILES | AC50 [µM] | activity change, negative = inhibition
47 | CCc1ccc(-c2cc(C(=O)N3N=C(C(F)F)CC3(O)C(F)F)c3ccccc3n2)cc1 (stereo not drawn) | 3.24 | 
48 | O=C(Nc1ccccc1)C(Cl)C(=O)c1ccccc1 (stereo not drawn) | 0.532 | 
49 | COc1cccc(/C=N/Nc2ncc(C(F)(F)F)cc2Cl)c1O | 4.33 | 
50 | O=C(Oc1ccc(Cl)c2cccnc12)c1cccnc1 | 7.85 | 
51 | O=C1CC(c2ccccc2)=NN1c1nc(-c2ccccc2)cs1 | 1.14 | 
52 | COC(=O)c1ccc(N2C(=O)CC(N(C)Cc3ccccc3)C2=O)cc1 (stereo not drawn) | 8.53 | 
53 | O=[N+]([O-])c1cccc(C=NNc2ccc3ccccc3n2)c1O | 3.63 | 
54 | Cn1c2ccccc2c2ccc3c(c21)C(=O)C=CC3=O | 8.02 | 
55 | Oc1ccc(-c2c(-c3ccsc3)sc3ccccc23)cc1 | 2.72 | 
56 | C[CH2][Hg][S]c1ccccc1C(=O)O | 4.9 | 
57 | CC[C@H](C)/C=C/C1=CC2=C(Cl)C(=O)[C@@]3(C)OC(=O)C(C(=O)[C@H](C)[C@@H](C)O)=C3C2=CO1 | 15.2 | 
58 | CCOC(=O)C1=C(Cc2ccc(Cl)cc2)C(=O)c2ccccc2C1=O |  | -104% (inactive)
59 | Oc1cc(Cl)c(Cl)c(Cl)c1Cl | 1.7 | 
60 | Oc1ccccc1C1=NN(c2ccccc2)C(c2ccccc2)C1 (stereo not drawn) | 4.3 | 
61 | Oc1c(CN2CCCCC2)cc(Br)c2cccnc12 | 2.95 | 
62 | C=CCn1c(O)c(N=Nc2ccccc2O)c2ccccc21 | 8.15 | 
63 | CCOC(=O)c1c(C)oc2c1c(C(c1cccnc1)N1CCOCC1)c(O)c1ccccc12 (stereo not drawn) | 5.35 | 
64 | Cc1ccc(NS(=O)(=O)c2ccc(N3CCN(c4ccc(O)cc4)CC3)c([N+](=O)[O-])c2)c(C)c1 | 5.7 | 
65 | COc1cc(/C=C/[N+](=O)[O-])ccc1OC(=O)c1cccnc1 | 1.65 | 
66 | O=Cc1ccc(O)c2ncccc12 | < 0.195 | 
67 | CN(CC(=O)Nc1cccc(F)c1)C(=O)c1cn(-c2ccccc2)nc1-c1ccc(Cl)cc1 | 7.8 | 
68 | CCOC(=O)/C(=C/c1ccc(OC(=O)c2ccccc2)cc1)C(C)=O | 1.43 | 
69 | O=C(C=P(c1ccccc1)(c1ccccc1)c1ccccc1)c1ccccc1-c1ccccc1C(=O)C=P(c1ccccc1)(c1ccccc1)c1ccccc1 | 5.12 | 

Row | SMILES | AC50 [µM] | activity change, negative = inhibition
70 | CN(O)C(=S)c1ccccc1 | 4.38 | 
71 | CCCCCCOC(=O)Sc1nc2ccccc2o1 | 1.57 | 
72 | CC1(C)N=C(SCC(=O)Nc2ccc(Cl)cc2Cl)C(c2ccccc2)=N1 |  | 20.1% (inactive)
73 | O=C(CN1CCN(c2ncc(C(F)(F)F)cc2Cl)CC1)NCCNc1ncc(C(F)(F)F)cc1Cl | 3.49 | 
74 | O=C1C=CC(=O)N1Cc1ccccc1 |  | 21.3% (inactive)
75 | CCCCCCCCCCCCCCCC[N+](C)(C)CCN(Cc1ccc(OC)cc1)c1ncccn1 | 4.14 | 
76 | Cc1ccc(OCC(=O)NNC(=S)NC(=O)C(C)(C)C)c(Br)c1 | 5.05 | 
77 | C[C@@H]1C[C@@H]([C@H](O)CC2CC(=O)NC(=O)C2)C(=O)[C@@H](C)C1 | < 0.195 | 
78 | O=C1C=C(c2ccc(Cl)cc2)C(=O)N1Nc1ccccc1 | < 0.195 | 
79 | CCOc1ccc2nc(NC(=O)c3ccoc3C)sc2c1 | 6.99 | 
80 | COC(=O)c1ccc(N2C(=O)CC(N3CCC(O)(c4ccc(Br)cc4)CC3)C2=O)cc1 (stereo not drawn) | 3.37 | 
81 | CC(=NNC(=S)Nc1cccc(C)c1)c1ccccn1 | 4.3 | 
82 | CCn1c(CNc2ccc(Cl)cc2)nnc1SCc1ccc(C)cc1 | 8.23 | 
83 | Cc1ccc(C(=O)c2coc3c2C(=O)C(=O)c2ccccc2-3)cc1 | 8.16 | 
84 | Oc1c(Br)cc(Br)cc1C=NCc1ccccc1 | 7.51 | 
85 | O=C1OC(c2ccccc2)(c2cc(Br)c(O)c(Br)c2)c2ccccc21 (stereo not drawn) | 2.97 | 
86 | Cc1ccc(N2C(=O)C3C4C=CC(CNC(=S)N5CCN(c6cccc(C)c6)C(C)C5)(O4)C3C2=O)cc1 (stereo not drawn) | 4.65 | 
87 | Cc1cc(/C=C2\SC(=S)N(C)C2=O)c(C)n1-c1ccc(O)cc1 | 8.33 | 
88 | O=[S@]1Oc2ccccc2-c2ccccc21 | 1.67 | 
89 | COc1ccc(C(=O)/C=C2\C(=O)Nc3ccc(Br)cc32)cc1 | 2.22 | 
90 | O=c1c(Br)ccc(Br)cc1Br | 0.38 | 
91 | Cc1ccc(S(=O)(=O)Nc2ccc3ccccc3c2[N+](=O)[O-])cc1 | 7.36 | 
92 | Cc1ccc(N2C(=O)C3C4C=CC(CNC(=S)N5CCN(c6ccccn6)CC5)(O4)C3C2=O)cc1 (stereo not drawn) | 8.31 | 

Row | SMILES | AC50 [µM] | activity change, negative = inhibition
93 | O=C(Nc1nnc(SCc2ccc(F)cc2)s1)c1ccccn1 | 4.41 | 
94 | O=C(/C=C/c1ccccn1)c1cc(Br)ccc1O | 1.01 | 
95 | O=C(CCN1C(=O)/C(=C/c2cccs2)SC1=S)NC1=NCCS1 |  | 60.4% (inactive)
96 | O=C1C=CC(=O)N1c1ccc2ccccc2c1 | 0.568 | 
97 | O=C(OCC(=O)N1CCN(C(=O)c2ccco2)CC1)c1cc(-c2cccc(Br)c2)nc2ccccc12 | 4.39 | 
98 | O=C1C2(Cl)C3(Cl)C4(Cl)C(Cl)(Cl)C5(Cl)C3(Cl)C1(Cl)C5(Cl)C24Cl (stereo not drawn) | 2.93 | 
99 | O=C(NNC1=C(C(=O)C(F)(F)F)CCC1)c1ccc(Br)cc1 | 0.759 | 
100 | O=C(N/N=C\c1c(O)ccc2ccccc12)c1cncc(Br)c1 | 4.28 | 
101 | Cc1cccc(/C=C/C(=O)c2ccc([N+](=O)[O-])o2)c1 | 1.56 | 
102 | CC1CCN(c2nc(Cl)nc(Nc3ccc([N+](=O)[O-])cc3)n2)CC1 | 24 | 
103 | Cc1ccc(CSc2nc3ccsc3c(=O)n2Cc2ccccn2)cc1 | 9.62 | 
104 | CCCNC(=O)c1nnsc1S(=O)(=O)c1ccc(Cl)cc1 | 0.758 | 
105 | Cc1ccc2c(c1)C(=O)C(=O)N2Cc1ccc(C(F)(F)F)cc1 | 7.78 | 
106 | CC(C)CCOc1cccc(OCC(=O)Nc2ccncc2)c1 | 4.84 | 
107 | O=[N+]([O-])c1ccc(N2N=C(c3ccccc3)CC2c2ccccc2O)cc1 (stereo not drawn) | 3.91 | 
108 | COc1ccc2sc(-c3ccccc3OC)c(-c3ccc(O)cc3)c2c1 | 8.46 | 
109 | Cc1sc(NC(=O)c2ccco2)c(C(c2cccnc2)N2CCC(C)CC2)c1C (stereo not drawn) | 7.74 | 
110 | Cc1c(C(=O)NCCSCc2cccc(C(F)(F)F)c2)cnn1-c1ccc(Cl)cc1 | 8.59 | 
111 | Cc1cc(N2CCN(c3cccc(C)c3C)CC2)nc(-c2ccccc2)n1 | 2.47 | 
112 | O=C(O)/C=C/C(=O)c1ccc2c(c1)CCc1ccccc1-2 | 26.3 | 
113 | O=[N+]([O-])c1ccc(S(=O)(=O)c2cccc(C(F)(F)F)c2)nc1 | 2.52 | 
